Test results published in ChEMBL document CHEMBL2384962, “Design, synthesis and evaluation of some new 4-aminopyridine derivatives in learning and memory” (Bioorg Med Chem Lett, 2013).
Active and inactive are the calls of the source. No cut-off for these calls is given here.

Assays:
Cholinesterase [1] = target: T1, Cholinesterase (Homo sapiens, UniProt P06276); experiment: Inhibition of human serum BChE using butyrylthiolcholine iodide as substrate incubated for 20 mins prior to substrate addition by Ellman's method
T1 sequence (P06276 whole entry): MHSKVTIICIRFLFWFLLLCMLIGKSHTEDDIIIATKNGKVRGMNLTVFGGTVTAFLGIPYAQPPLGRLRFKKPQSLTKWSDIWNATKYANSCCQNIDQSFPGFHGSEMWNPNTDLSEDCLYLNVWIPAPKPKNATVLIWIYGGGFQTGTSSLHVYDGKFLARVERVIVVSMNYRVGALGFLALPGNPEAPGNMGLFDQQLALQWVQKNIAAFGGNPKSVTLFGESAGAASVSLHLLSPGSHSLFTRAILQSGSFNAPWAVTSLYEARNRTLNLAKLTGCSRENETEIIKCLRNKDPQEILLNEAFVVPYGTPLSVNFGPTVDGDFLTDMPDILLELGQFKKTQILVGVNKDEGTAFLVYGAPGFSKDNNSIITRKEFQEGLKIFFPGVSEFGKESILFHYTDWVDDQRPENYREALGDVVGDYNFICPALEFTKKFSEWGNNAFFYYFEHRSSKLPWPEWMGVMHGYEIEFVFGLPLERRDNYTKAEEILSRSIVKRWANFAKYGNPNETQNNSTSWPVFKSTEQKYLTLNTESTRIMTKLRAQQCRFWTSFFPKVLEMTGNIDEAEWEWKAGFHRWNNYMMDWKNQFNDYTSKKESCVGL

Rattus norvegicus [2] = experiment: Acute toxicity in Charles Foster albino rat assessed as tremors up to 100 mg/kg, po after 48 hrs; type: organism-based; set-up: dose 100 mg/kg, route oral; settings: in vivo
Rattus norvegicus [3] = experiment: Antiamnesic activity in Charles Foster albino rat assessed as reduction in scopolamine-induced increase in transfer latency at 5 mg/kg, po administered for 8 days measured 1 hr post last dose by elevated plus maze task (reference value: 62.50 +/- 0.76 s); type: functional
Rattus norvegicus [4] = experiment: Acute toxicity in Charles Foster albino rat assessed as blood pressure up to 100 mg/kg, po after 48 hrs; type: organism-based; set-up: dose 100 mg/kg, route oral; settings: in vivo
[5] = Selectivity ratio of IC50 for human serum BChE to IC50 for electric eel AChE
Rattus norvegicus [6] = experiment: Antiamnesic activity in Charles Foster albino rat assessed as reduction in scopolamine-induced increase in transfer latency at 10 mg/kg, po administered for 8 days measured 1 hr post last dose by elevated plus maze task (reference value: 62.50 +/- 0.76 s); type: functional
Rattus norvegicus [7] = experiment: Antiamnesic activity in po dosed Charles Foster albino rat assessed as reduction in scopolamine-induced increase in transfer latency after 7 to 8 days by elevated plus maze task; type: functional, organism-based
Rattus norvegicus [8] = experiment: Acute toxicity in Charles Foster albino rat assessed as sleep up to 100 mg/kg, po after 48 hrs; type: organism-based; set-up: dose 100 mg/kg, route oral; settings: in vivo
Rattus norvegicus [9] = experiment: Acute toxicity in Charles Foster albino rat assessed as lacrimation up to 100 mg/kg, po after 48 hrs; type: organism-based; set-up: dose 100 mg/kg, route oral; settings: in vivo
Rattus norvegicus [10] = experiment: Acute toxicity in Charles Foster albino rat assessed as diarrhoea up to 100 mg/kg, po after 48 hrs; type: organism-based; set-up: dose 100 mg/kg, route oral; settings: in vivo
Rattus norvegicus [11] = experiment: Acute toxicity in Charles Foster albino rat assessed as mortality up to 100 mg/kg, po after 48 hrs; type: organism-based; set-up: dose 100 mg/kg, route oral; settings: in vivo
Rattus norvegicus [12] = experiment: Acute toxicity in Charles Foster albino rat assessed as pulse rate up to 100 mg/kg, po after 48 hrs; type: organism-based; set-up: dose 100 mg/kg, route oral; settings: in vivo
Acetylcholinesterase [13] = target: T2, Acetylcholinesterase (Electrophorus electricus, UniProt O42275); experiment: Inhibition of electric eel AChE using […] as substrate incubated for 20 mins prior to substrate addition by Ellman method
T2 sequence (O42275 whole entry): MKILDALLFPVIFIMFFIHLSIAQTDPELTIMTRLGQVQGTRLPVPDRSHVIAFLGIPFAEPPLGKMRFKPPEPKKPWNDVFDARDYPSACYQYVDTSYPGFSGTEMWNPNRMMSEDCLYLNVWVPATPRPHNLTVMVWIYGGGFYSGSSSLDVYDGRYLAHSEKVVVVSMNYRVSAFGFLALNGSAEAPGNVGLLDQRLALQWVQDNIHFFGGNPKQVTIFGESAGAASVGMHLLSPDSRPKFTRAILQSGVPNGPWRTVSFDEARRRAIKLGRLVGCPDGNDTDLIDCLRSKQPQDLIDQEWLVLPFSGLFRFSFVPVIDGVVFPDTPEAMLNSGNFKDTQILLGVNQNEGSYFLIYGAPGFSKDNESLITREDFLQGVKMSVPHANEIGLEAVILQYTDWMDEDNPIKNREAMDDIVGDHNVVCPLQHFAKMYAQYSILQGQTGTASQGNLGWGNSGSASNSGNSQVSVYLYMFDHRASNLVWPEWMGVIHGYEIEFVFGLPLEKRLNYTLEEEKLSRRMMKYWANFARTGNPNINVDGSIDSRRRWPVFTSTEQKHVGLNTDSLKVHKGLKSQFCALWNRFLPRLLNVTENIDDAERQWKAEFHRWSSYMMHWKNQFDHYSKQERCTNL

Rattus norvegicus [14] = experiment: Acute toxicity in Charles Foster albino rat assessed as heart rate up to 100 mg/kg, po after 48 hrs; type: organism-based; set-up: dose 100 mg/kg, route oral; settings: in vivo
Rattus norvegicus [15] = experiment: Antiamnesic activity in Charles Foster albino rat assessed as reduction in scopolamine-induced increase in transfer latency at 10 mg/kg, po administered for 7 days measured 1 hr post last dose by elevated plus maze task (reference value: 67.67 +/- 0.88 s); type: functional
Rattus norvegicus [16] = experiment: Acute toxicity in Charles Foster albino rat assessed as salivation up to 100 mg/kg, po after 48 hrs; type: organism-based; set-up: dose 100 mg/kg, route oral; settings: in vivo
Rattus norvegicus [17] = experiment: In vivo inhibition of AChE-mediated substrate hydrolysis in Charles Foster albino rat hypothalamus at 5 to 10 mg/kg, po administered for 8 days measured 1 hr post last dose; type: functional, organism-based; set-up: dose 5 to 10 mg/kg, route oral
Rattus norvegicus [18] = experiment: Acute toxicity in Charles Foster albino rat assessed as convulsions up to 100 mg/kg, po after 48 hrs; type: organism-based; set-up: dose 100 mg/kg, route oral; settings: in vivo
Rattus norvegicus [19] = experiment: In vivo inhibition of AChE-mediated substrate hydrolysis in Charles Foster albino rat hippocampus at 5 to 10 mg/kg, po administered for 8 days measured 1 hr post last dose; type: functional, organism-based; set-up: dose 5 to 10 mg/kg, route oral
Rattus norvegicus [20] = experiment: Antiamnesic activity in Charles Foster albino rat assessed as reduction in scopolamine-induced increase in transfer latency at 5 mg/kg, po administered for 7 days measured 1 hr post last dose by elevated plus maze task (reference value: 67.67 +/- 0.88 s); type: functional
Rattus norvegicus [21] = experiment: In vivo inhibition of AChE-mediated substrate hydrolysis in Charles Foster albino rat prefrontal cortex at 5 to 10 mg/kg, po administered for 8 days measured 1 hr post last dose; type: functional, organism-based
Rattus norvegicus [22] = experiment: Acute toxicity in Charles Foster albino rat assessed as feeding behaviour up to 100 mg/kg, po after 48 hrs; type: organism-based; set-up: dose 100 mg/kg, route oral; settings: in vivo
Cholinesterase [23] = target: T1, Cholinesterase; experiment: Competitive inhibition of human serum BChE using butyrylthiolcholine iodide as substrate by Lineweaver-Burk plot analysis
Acetylcholinesterase [24] = target: T2, Acetylcholinesterase; experiment: Non-competitive inhibition of electric eel AChE using […] as substrate by Lineweaver-Burk plot analysis

SMILES	IC50 (Cholinesterase [1])	Activity (Rattus norvegicus [2])	Time (Rattus norvegicus [3])	Activity (Rattus norvegicus [4])	Ratio IC50 [5]	Time (Rattus norvegicus [6])	Activity (Rattus norvegicus [7])	Activity (Rattus norvegicus [8])	Activity (Rattus norvegicus [9])	Activity (Rattus norvegicus [10])	Activity (Rattus norvegicus [11])	Activity (Rattus norvegicus [12])	IC50 (Acetylcholinesterase [13])	Activity (Rattus norvegicus [14])	Time (Rattus norvegicus [15])	Activity (Rattus norvegicus [16])	inhibition (Rattus norvegicus [17])	Activity (Rattus norvegicus [18])	inhibition (Rattus norvegicus [19])	Time (Rattus norvegicus [20])	other results
O=C(O)CCC(=O)Nc1ccncc1	56.5 µM	Non-toxic	71.67 s	Non-toxic	1.39	70 s	Dose-dependent effect	Non-toxic	Non-toxic	Non-toxic	Non-toxic	Non-toxic	40.3 µM	Non-toxic	74.83 s	Non-toxic	Active	Non-toxic	Active	77.67 s	inhibition (Rattus norvegicus [21]): Active; Activity (Rattus norvegicus [22]): Non-toxic
O=C1CCC(=O)N1c1ccncc1	3.82 µM	Non-toxic	60.67 s	Non-toxic	7.79	58.33 s	Dose-dependent effect	Non-toxic	Non-toxic	Non-toxic	Non-toxic	Non-toxic	0.49 µM	Non-toxic	65.5 s	Non-toxic	Active	Non-toxic	Active	66.83 s	inhibition (Rattus norvegicus [21]): Active; Activity (Rattus norvegicus [22]): Non-toxic
O=C1C=CC(=O)N1c1ccncc1	11 µM	Non-toxic	56.33 s	Non-toxic	367	53.83 s	Dose-dependent effect	Non-toxic	Non-toxic	Non-toxic	Non-toxic	Non-toxic	0.03 µM	Non-toxic	61.33 s	Non-toxic	Active	Non-toxic	Active	64.67 s	Ki (Cholinesterase [23]): 15.6 µM; Ki (Acetylcholinesterase [24]): 0.042 µM; inhibition (Rattus norvegicus [21]): Active; Activity (Rattus norvegicus [22]): Non-toxic
O=C(O)/C=C\C(=O)Nc1ccncc1	657 µM	Non-toxic	75.33 s	Non-toxic	13.5	72.5 s	Dose-dependent effect	Non-toxic	Non-toxic	Non-toxic	Non-toxic	Non-toxic	48.7 µM	Non-toxic	77.67 s	Non-toxic	Active	Non-toxic	Active	80.5 s	inhibition (Rattus norvegicus [21]): Active; Activity (Rattus norvegicus [22]): Non-toxic
